Here are results for three compounds from US20030162165A1, “Chemical signal enhancement of dynamic intensity-based intracellular protein-and fluorophore-based redistribution assays for drug-screening” (priority 2003, published 2003).

By solubility is commonly meant the dissolved amount per volume that the medium holds. Low values mean little dissolved substance, high ones much dissolved substance.

The test system of series [1] is human isoform of PKC (protein kinase C) beta 1 tagged with GFP. Kind of series: Type 1 redistribution assay (PKC beta 1-GFP, ATP stimulus) on FLIPR. The class given is cell-based. The following applies: for increase in the measurable response, type 1 redistribution: summary, enhancer added to extracellular medium, FLIPR. The method, then: (§1) The CHO (Chinese hamster ovary) cell line stably expressing the human isoform of PKC (protein kinase C) beta 1 tagged with GFP (green fluorescent protein)in its C-terminal end and the human RACK1 (receptor for activated C kinase) was cultured in 96-well microtiter plates (Packard View-Plate). After 20 min preincubation in KRW (experimental buffer; A modified Krebs-Ringer buffer containing (in mM): NaCl 140, KCl 3.6, NaH2PO4 0.5, MgSO4 0.5, NaHCO3 2.0, CaCl2 1.5 and HEPES 10, D-glucose 5 (pH 7.4, titrated with 1M NaOH)) the cell plate was supplemented with a concentration gradient of Trypan Blue at 0, 10, 50, 100 and 200 μM (4 wells per compound and concentration) and placed in the FLIPR™. Subsequently the cells were stimulated in the FLIPR™ with 100 μM ATP. This gives a Type 1 redistribution response (see FIG. 6) in these cells where the redistribution can be quantified as a reduction in fluorescence intensity, as PKC beta 1 moves from the cytosol to the membrane, during the first 1-2 minutes of stimulation. […] All data were corrected for background by subtraction of a background trace based on 16 individual background traces and normalized to 1 at the point of addition of 100 μM ATP.
as §1, with “Acid Red 88” for “Trypan Blue”
The CHO (Chinese hamster ovary) cell line stably expressing the human isoform of PKC (protein kinase C) beta 1 tagged with GFP (green fluorescent protein) in its C-terminal end and the human RACK1 (receptor for activated C kinase) was cultured in 96-well microtiter plates (Packard View-Plate). After 20 min preincubation in KRW (experimental buffer; A modified Krebs-Ringer buffer containing (in mM): NaCl 140, KCl 3.6, NaH2PO4 0.5, MgSO4 0.5, NaHCO3 2.0, CaCl2 1.5 and HEPES 10, D-glucose 5 (pH 7.4, titrated with 1M NaOH)) the cell plate was supplemented with a concentration gradient of Trypan Blue, Acid Red 88 and Orange G at 0, 10, 50, 100 and 200 μM (4 wells per compound and concentration) and placed in the FLIPR™. Subsequently the cells were stimulated in the FLIPR™ with 100 μM ATP. This gives a Type 1 redistribution response (see FIG. 6) in these cells where the redistribution can be quantified as a reduction in fluorescence intensity, as PKC beta 1 moves from the cytosol to the membrane, during the first 1-2 minutes of stimulation. All data were corrected for background by subtraction of a background trace based on 16 individual background traces and normalized to 1 at the point of addition of 100 μM ATP. The data points represent the average of four determinations+SD. […]

Series [2] deals with PH-domain (pleckstrin homology) of the human isoform of PLC (phospho-lipase C) delta tagged with GFP. As to the kind of experiment: Type 3 redistribution assay (PLC delta PH-domain-GFP, ATP stimulus) on FLIPR. It is filed as cell-based. The following applies: for increase in the measurable response, type 3 redistribution: summary, enhancer added to extracellular medium, FLIPR. As for the experimental part:
The CHO (Chinese hamster ovary) cell line stably expressing the PH-domain (pleckstrin homology) of the human isoform of PLC (phospho-lipase C) delta tagged with GFP (green fluorescent protein) in its C-terminal end was cultured in 96-well microtiter plates (Packard View-Plate). After 20 min preincubation in KRW (experimental buffer; A modified Krebs-Ringer buffer containing (in mM): NaCl 140, KCl 3.6, NaH2PO4 0.5, MgSO4 0.5, NaHCO3 2.0, CaCl2 1.5 and HEPES 10, D-glucose 5 (pH 7.4, titrated with 1M NaOH)) the cell plate was supplemented with 100 μM Trypan Blue in one half and 10 μM Acid Red 88 in the other half of the wells and placed in the FLIPR™. Subsequently the cells were stimulated in the FLIPR™ with a range of ATP concentrations starting with 300 μM and lower by a threefold reduction of concentration in each dilution step. This gives a Type 3 redistribution response (see FIG. 6) in these cells where the redistribution can be quantified as an increase in fluorescence intensity, as the PH-domain of PLC delta 1 moves from the membrane to the cytosol, during the first 1-2 minutes of stimulation. FIG. 4 summarizes this experiment. All data were corrected for background by subtraction of a background trace based on 4 individual background traces. The data points represent the average of four determinations+SD. The data were extracted as the maximal change during the first minute of stimulation (Smax-Smin).
The CHO (Chinese hamster ovary) cell line stably expressing the PH-domain (pleckstrin homology) of the human isoform of PLC (phospho-lipase C) delta tagged with GFP (green fluorescent protein) in its C-terminal end was cultured in 96-well microtiter plates (Packard View-Plate). After 20 min preincubation in KRW (experimental buffer; A modified Krebs-Ringer buffer containing (in mM): NaCl 140, KCl 3.6, NaH2PO4 0.5, MgSO4 0.5, NaHCO3 2.0, CaCl2 1.5 and HEPES 10, D-glucose 5 (pH 7.4, titrated with 1M NaOH)) the cell plate was supplemented with 100 μM Trypan Blue in one half and 20 μM Acid Red 88 in the other half of the wells and placed in the FLIPR. Subsequently the cells were stimulated in the FLIPR with 100 μM ATP. This gives a Type 3 redistribution response (see FIG. 6) in these cells where the redistribution can be quantified as an increase in fluorescence intensity, as the PH-domain of PLC delta 1 moves from the membrane to the cytosol, during the first 1-2 minutes of stimulation. FIG. 4 summarizes this experiment. It can be seen that Acid Red 88 in this case maximally gives about a 6-7-fold increase in signal over the one obtained with Trypan Blue.

Series [3] deals with mouse cPKA (catalytic subunit of protein kinase A) tagged with GFP. As to the kind of experiment: Type 2 redistribution assay (cPKA-GFP, Forskolin stimulus) on FLIPR. The class given is cell-based. The conditions noted are these: for effect on type 2 redistribution response: CHO cells, concentration gradient of dye. The method, then: The CHO (Chinese hamster ovary) cell line stably expressing the mouse cPKA (catalytic subunit of protein kinase A) tagged with GFP (green fluorescent protein) in its N-terminal end was cultured in 96-well microtiter plates (Packard View-Plate). After 20 min preincubation in KRW (experimental buffer; A modified Krebs-Ringer buffer containing (in mM): NaCl 140, KCl 3.6, NaH2PO4 0.5, MgSO4 0.5, NaHCO3 2.0, CaCl2 1.5 and HEPES 10, D-glucose 5 (pH 7.4, titrated with 1M NaOH)) the cell plate was supplemented with a concentration gradient of Trypan Blue and Acid Red 88 (4 wells per compound and concentration) and placed in the FLIPR™. Subsequently the cells were stimulated in the FLIPR™ with 10 μM Forskolin. This gives a Type 2 redistribution response (see FIG. 6) in these cells where the redistribution can be quantified as an increase in fluorescence intensity, as cPKA moves from aggregates in the cytosol to a dispersed form in the cytosol, during the first 2-5 minutes of stimulation. All data were corrected for background by subtraction of a background trace based on 16 individual background traces and normalized to 1 at the point of addition of 10 μM Forskolin. The data points represent the average of four determinations+SD. The data were extracted as the maximal change in fluorescence during the first five minutes of stimulation. Negative values depict a decrease In fluorescence during the response and positive values and Increase.
The CHO (Chinese hamster ovary) cell line stably expressing the mouse cPKA (catalytic subunit of protein kinase A) tagged with GFP (green fluorescent protein) in its N-terminal end was cultured in 96-well microtiter plates (Packard View-Plate). After 20 min preincubation in KRW (experimental buffer; A modified Krebs-Ringer buffer containing (in mM): NaCl 140, KCl 3.6, NaH2PO4 0.5, MgSO4 0.5, NaHCO3 2.0, CaCl2 1.5 and HEPES 10, D-glucose 5 (pH 7.4, titrated with 1M NaOH)) the cell plate was supplemented with a concentration gradient of Trypan Blue and Acid Red 88 at 0, 10, 50, 100 and 200 μM during the experimental fluorescence recording (4 wells per compound and concentration) in the FLIPR™. […] The data were extracted as the absolute fluorescence change 30 seconds after addition of the two compounds.
The CHO (Chinese hamster ovary) cell line stably expressing the mouse cPKA (catalytic subunit of protein kinase A) tagged with GFP (green fluorescent protein) in its N-terminal end was cultured in 96-well microtiter plates (Packard View-Plate). […] This gives a Type 2 redistribution response (see FIG. 6) in these cells where the redistribution can be quantified as an increase in fluorescence intensity, as cPKA moves from aggregates in the cytosol to a dispersed form in the cytosol, during the first 2-5 minutes of stimulation.

The nature of the next series: Solubility in water. It is filed as physicochemical.
For series [4] the following is noted: cited from earlier work; for Molar Absorptivity 488 nm: at 488 nm; for Molar Absorptivity 488 nm / Molar Absorptivity 500-550 nm: estimated from published spectra; for Molar Absorptivity 500-550 nm: average over 500-550 nm; for Wavelength of maxiumum absorbance: published spectra.

Entries after “also recorded” stand apart in the source; their conditions may differ.

Consider `Cc1cc(-c2ccc(/N=N/c3c(S(=O)(=O)O)cc4cc(S(=O)(=O)O)cc(N)c4c3O)c(C)c2)ccc1/N=N/c1c(S(=O)(=O)O)cc2cc(S(=O)(=O)O)cc(N)c2c1O` [Trypan Blue], for which the “maximal enhancement of the response compared to the control” value in series [1] (at 200 μM enhancer, CHO cells, 100 μM ATP) was “about 3 fold”. Moreover, the “increase in the measurable response, type 1 redistribution” value in series [1] was 2-3 fold. The “effect on type 3 redistribution response” value in series [2] (100 μM Trypan Blue, response barely detectable without the compound) is recorded as “clearly give a detectable signal”. Further, the “increase in the measurable response, type 3 redistribution” value in series [2] was 1-3 fold. Also, in series [3] (10 μM Forskolin), the “effect on type 2 redistribution response” value is given as “reduced it somewhat at higher concentrations; also recorded: no enhancing effect”. In the series “Solubility in water”, this compound came in with a solubility below 100 µg/mL. In series [4], the “Molar Absorptivity 488 nm” value is given as 16014 mol^−1-cm^−1, the “Molar Absorptivity 500-550 nm” value is 34556 mol^−1-cm^−1 and the “Wavelength of maxiumum absorbance” value was 607 nm.

As to `O=S(=O)(O)c1cc(S(=O)(=O)O)c2c(/N=N/c3ccccc3)c(O)ccc2c1` [Orange G], the “enhancing effect on type 1 redistribution response” value in series [1] (CHO cells, 100 μM ATP, 0-200 μM dye) was “enhancing properties up to a concentration of 100 μM; also recorded: inferior to Trypan Blue and much inferior to Acid Red 88”. Also, in series [4], the “Molar Absorptivity 488 nm” value is reported as 13571 mol^−1-cm^−1, the “Molar Absorptivity 500-550 nm” value is given as 4524 mol^−1-cm^−1 and the “Wavelength of maxiumum absorbance” value is 475 nm.

For `O=S(=O)([O-])c1ccc(N=Nc2c(O)ccc3ccccc23)c2ccccc12.[Na+]` [Acid Red 88], in series [1] (at 50 μM enhancer, CHO cells, 100 μM ATP), the “maximal enhancement of the response compared to the control” value is given as “about 7 fold”. For the same compound, in series [1] (concentration dependent, 0-200 μM, no stimulus (FIG. 7)), the “effect on overall basal fluorescence, type 1 redistribution assay” value was “reduces overall basal fluorescence”. Besides, the “increase in the measurable response, type 1 redistribution” value in series [1] is 6-7 fold. For the same compound, the “increase in signal over the one obtained with Trypan Blue, type 3 redistribution” value in series [2] (maximal, 20 μM Acid Red 88 vs 100 μM Trypan Blue, CHO cells, ATP) is 6-7 fold. Further, the “increase in the measurable response, type 3 redistribution” value in series [2] is 7-10 fold. Besides, the “effect on overall basal fluorescence, type 2 redistribution assay” value in series [3] (0-200 μM, no stimulus (FIG. 10)) is “did not reduce the overall basal fluorescence”. For the same compound, in series [3] (10 μM Forskolin), the “effect on type 2 redistribution response” value was “completely abolished the response at the lowest concentration”. For the same compound, the “effect on type 2 redistribution response at higher concentrations” value in series [3] (above 10 μM, 10 μM Forskolin) is on record as “reversed it to a fluorescence decrease”. Besides, in series [4], the “Molar Absorptivity 488 nm” value is 16986 mol^−1-cm^−1, the “Molar Absorptivity 500-550 nm” value is recorded as 14964 mol^−1-cm^−1 and the “Wavelength of maxiumum absorbance” value was 505 nm.
